PMC8851282, “Senolysis induced by 25-hydroxycholesterol targets CRYAB in multiple cell types” (iScience, 2022)

Assays:
[1] = system: human skeletal muscle myoblasts (HSMMs); test: Cell viability assay (cell counting kit-8) of senescent and non-senescent HSMMs treated with inhibitors; assay type: cell-based; settings: for IC50: Homo sapiens, Myoblast, HSMM
Experimental: Figure 3 25HC is a senolytic in multiple muscle cell types (A) Targets, compounds, and mechanisms. (B) Timeline of cell viability assay with inhibitors. Cells were pre-cultured for 24 h, treated with Doxo for 24 h, and then treated with inhibitors. Cell viability was analyzed from day 0–7. (C–E) Effects of inhibitors on viability of FAPs, SCs, and HSMMs. Cells were treated with inhibitors at the indicated concentrations. Cell viability was analyzed on day 3 (HSMMs) or 5 (FAPs and SCs). Blue and red dots indicate non-senescent (NS) and senescent (SEN), respectively. The average value at 0 μM for each group was set at 100% cell viability. p values versus NS were obtained using unpaired two-tailed Student’s t test. ∗p < 0.05, ∗∗p < 0.01, and ∗∗∗p < 0.001.
All experiments were performed in incubators at 37 °C, 3% O2 and 5% CO2. Senescence was induced by treatment with either Doxo (250 nM for 24 h) ([Demaria et al., 2017]) or X-irradiation (10 Gy) ([Limbad et al., 2020]). For cell culture studies using 25HC, it was used at the indicated concentrations in the media.
FAPs and SCs were cultured on Matrigel-coated dishes (BD Biosciences) in growth medium (GM) consisting of DMEM plus 10% FBS, 1% penicillin-streptomycin and 10% MyoCult (STEMCELL Technologies) for 7 days. Human myogenic cell HSMMs (Lonza) were maintained according to the manufacturer’s instructions with SkGM-2 medium (Lonza).
Cell viability was assessed using a cell counting kit-8 from Dojindo Molecular Technologies, Inc (Cat CK04-20). Cells were incubated with culture media + 10% kit cell viability reagent, 150 μL/well in 96-well plates for 2 h. The supernatant was transferred to a new 96-well plate and absorbance read at 450 nm as recommended in the product datasheet.

[2] = system: human liver stellate cells (hLSCs); test: Cell viability assay of NS and Doxo- or IR-induced senescent hLSCs treated with 25HC; assay type: cell-based; settings: 100 μM after 3 days; Doxo or IR induced senescence
Experimental: Figure 7 25HC treatment timeline and its effects on NS and SEN hCMECs, hLSCs, hRPTECs, and hACs All cell types were treated with either DMSO, 250 nM Doxo or 10-Gy IR at the times shown. 25HC treatment was started 24 h after Doxo or IR treatment. Cell viability was measured every 3–5 days for 15 days. Optimal treatment times for maximum senolysis are shown for each cell type: day 15 for hCMECs, day 3 for hLSCs, day 9 for hRPTECs and day 12 for hACs. For qRT-PCR: mean ± SE, n =4, ∗p< 0.05, ∗∗p< 0.01, ∗∗∗p<0.001, ∗∗∗∗p<0.0001 by Dunnett’s multiple comparisons test vs DMSO or NS, For cell viability assays: mean ± SE, n =3, ∗∗p< 0.01, ∗∗∗p<0.001, ∗∗∗∗p<0.0001 vs 0 mM by student’s t test.
All experiments were performed in incubators at 37 °C, 3% O2 and 5% CO2. Senescence was induced by treatment with either Doxo (250 nM for 24 h) ([Demaria et al., 2017]) or X-irradiation (10 Gy) ([Limbad et al., 2020]). […]
Cell viability was assessed using a cell counting kit-8 from Dojindo Molecular Technologies, Inc (Cat CK04-20). […] The supernatant was transferred to a new 96-well plate and absorbance read at 450 nm as recommended in the product datasheet. […]
Cells were treated with either DMSO or 250 nM Doxo for 24 h. […] Cell viability was measured every 3-–5 days until 15 days.
(b) 25HC effects on NS or IR-treated hLSCs at vari ous ti mes. […] Cell viability was measured every 3–5 days until 15 days. […]

[3] = system: 15-d-PGJ2; test: 15-d-PGJ2 ELISA in urine of aged mice given 25HC; assay type: in vivo, mouse; settings: 24–26-month-old mice, both genders; urine 12 h after the first treatment with 25HC 50 mg/kg i.p., relative to controls
Experimental: Figure 9 25HC is an in vivo senolytic in tissues of aged mice (A) Timeline of 25HC treatment in aged mice. Young (5 months old) and old (24–26 months old) mice were treated with 25HC or vehicle for 5 consecutive days. (B) Mass of gastrocnemius muscles in male and female mice. Muscle weight was normalized to body weight. (C) Cdkn1a and Cryab mRNA levels in gastrocnemius (Gastroc) and soleus (Sol) muscles. RNA was collected at 7–9 d after the first treatment with 25HC or vehicle. mRNA levels of the indicated genes were quantified by qRT-PCR, and normalized to those of actin mRNA. The average value of young-vehicle was set at 1. (D) 15-d-PGJ2 analysis in urine. […]
Two groups of male and female C57BL/6J mice were used. […] Senescence markers and CRYAB were analyzed using mRNA from gastrocnemius (Gastroc), soleus (So), tibialis anterior (TA), visceral fat (VF), kidney (Ki), liver (Li), lung (Lu), heart (He), and skin (Sk) samples using qRT-PCR (Figures S14, S15, S16, S17, and S18).
Urine was collected at 12 or 24 h after the first treatment with 25HC or vehicle and diluted 10-fold with assay buffer. The amount of 15-d-PGJ2 was measured using a 15-deoxy-Δ^12,14-PGJ2 ELISA kit according to manufactures’ protocol (Enzo Life Sciences).

For `C[C@H](CCCC(C)(C)O)[C@H]1CC[C@H]2[C@@H]3CC=C4C[C@@H](O)CC[C@]4(C)[C@H]3CC[C@]12C` [25HC, 25-hydroxycholesterol], the “viability of senescent versus non-senescent HSMMs” value ([1]; Doxo-induced senescence, viability on day 3) was “significantly decreased cell viability”, the IC50 ([1]; 72 h, 3 days in culture) was 7.2 µM and the IC50 ([1]; 168 h, 7 days in culture) was 3.7 µM. For the same molecule, the “senolysis in hLSCs” value [2] was “induced significant senolysis” and the “15-d-PGJ2 level in urine” value [3] was “greater”.
